Source: patent publication US20100076015A1, “Aminopyridine Derivatives” (VANTIA LIMITED, priority 2008, published 2010)

Target: T1, Human KLK1 (Homo sapiens, UniProt P06870)
T1 construct: purchased Callbiochem (Calbiochem)
Experiment: Determination of the IC50 for KLK1 (fluorogenic substrate H-DVal-Leu-Arg-AFC)
Assay type: biochemical
Conditions: 37° C.
Method in brief: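 Human KLK1 incubated at 37 °C with fluorogenic substrate H-DVal-Leu-Arg-AFC and a range of test compound concentrations. Residual activity was taken as initial reaction rate from absorbance change at 410 nm, and the IC50 derived from it.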

T1 sequence (P06870 25-262): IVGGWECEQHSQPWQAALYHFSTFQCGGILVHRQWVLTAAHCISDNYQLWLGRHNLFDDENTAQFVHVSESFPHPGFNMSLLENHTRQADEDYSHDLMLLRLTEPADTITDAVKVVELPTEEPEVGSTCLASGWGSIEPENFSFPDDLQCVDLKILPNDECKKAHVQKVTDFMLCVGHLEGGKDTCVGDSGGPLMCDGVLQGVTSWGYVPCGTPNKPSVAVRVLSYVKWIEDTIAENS

Nc1ccc(CNC(=O)[C@H](Cc2c(F)c(F)c(F)c(F)c2F)NC(=O)c2cc3ccccc3[nH]2)cn1 [Example 329, 1H-Indole-2-carboxylic acid {(S)-1-[(6-amino-pyridin-3-ylmethyl)-carbamoyl]-2-pentafluorophenyl-ethyl}-amide]
IC50: 299 nM

Nc1ccc(CNC(=O)[C@H](Cc2ccc(F)cc2)NC(=O)c2cc3ccccc3[nH]2)cn1 [Example 330, 1H-Indole-2-carboxylic acid [(S)-1-[(6-amino-pyridin-3-ylmethyl)-carbamoyl]-2-(4-fluoro-phenyl)-ethyl]-amide]
IC50: 23.6 nM

Nc1ccc(CNC(=O)[C@H](Cc2ccc(F)cc2)NC(=O)c2cc3cc(F)ccc3[nH]2)cn1 [Example 331, 5-Fluoro-1H-indole-2-carboxylic acid [(S)-1-[(6-amino-pyridin-3-ylmethyl)-carbamoyl]-2-(4-fluoro-phenyl)-ethyl]-amide]
IC50: 32 nM

COc1ccc2[nH]c(C(=O)N[C@@H](Cc3ccc(F)cc3)C(=O)NCc3ccc(N)nc3)cc2c1 [Example 332, 5-Methoxy-1H-indole-2-carboxylic acid [(S)-1-[(6-amino-pyridin-3-ylmethyl)-carbamoyl]-2-(4-fluoro-phenyl)-ethyl]-amide]
IC50: 21.5 nM

Nc1ccc(CNC(=O)[C@H](Cc2ccc(F)cc2)NC(=O)c2nc3ccccc3[nH]2)cn1 [Example 333, 1H-Benzoimidazole-2-carboxylic acid [(S)-1-[(6-amino-pyridin-3-ylmethyl)-carbamoyl]-2-(4-fluoro-phenyl)-ethyl]-amide]
IC50: 184 nM

COc1ccc(C[C@H](NC(=O)c2cc3ccccc3[nH]2)C(=O)NCc2ccc(N)nc2)cc1 [Example 334, 1H-Indole-2-carboxylic acid [(S)-1-[(6-amino-pyridin-3-ylmethyl)-carbamoyl]-2-(4-methoxy-phenyl)-ethyl]-amide]
IC50: 235 nM

Nc1ccc(CNC(=O)[C@H](Cc2csc3ccccc23)NC(=O)c2cc3ccccc3[nH]2)cn1 [Example 335, 1H-Indole-2-carboxylic acid {(S)-1-[(6-amino-pyridin-3-ylmethyl)-carbamoyl]-2-benzo[b]thiophen-3-yl-ethyl}-amide]
IC50: 15.8 nM

Nc1ccc(CNC(=O)[C@H](CC2CCCCC2)NC(=O)c2cc3ccccc3[nH]2)cn1 [Example 338, 1H-Indole-2-carboxylic acid {(S)-1-[(6-amino-pyridin-3-ylmethyl)-carbamoyl]-2-cyclohexyl-ethyl}-amide]
IC50: 881 nM

CCC(C)[C@H](NC)C(=O)N[C@@H](CC1CCCCC1)C(=O)NCc1ccc(N)nc1 (stereo partly drawn) [Example 339, (S)-3-Methyl-2-methylamino-pentanoic acid {(S)-1-[(6-amino-pyridin-3-ylmethyl)-carbamoyl]-2-cyclohexyl-ethyl}-amide]
IC50: 39.8 nM

CN[C@@H](C(=O)N[C@@H](Cc1cccc(Cl)c1)C(=O)NCc1ccc(N)nc1)C(C)C [Example 341, (R)—N-[(S)-1-[(6-Amino-pyridin-3-ylmethyl)-carbamoyl]-2-(3-chloro-phenyl)-ethyl]-3-methyl-2-methylamino-butyramide]
IC50: 2.2 nM

CN[C@H](Cc1ccccc1)C(=O)N[C@@H](Cc1cccc(Cl)c1)C(=O)NCc1ccc(N)nc1 [Example 342, (R)—N-[(S)-1-[(6-Amino-pyridin-3-ylmethyl)-carbamoyl]-2-(3-chloro-phenyl)-ethyl]-2-methylamino-3-phenyl-propionamide]
IC50: 2.7 nM

C[C@@H](C(=O)N[C@@H](Cc1ccc(F)c(F)c1)C(=O)NCc1ccc(N)nc1)N(C)CC1CCCCC1 [Example 343, (S)—N-[(S)-1-[(6-Amino-pyridin-3-ylmethyl)-carbamoyl]-2-(3,4-difluoro-phenyl)-ethyl]-2-(cyclohexylmethyl-methyl-amino)-propionamide]
IC50: 91 nM

C[C@@H](C(=O)N[C@@H](Cc1ccc(F)c(F)c1)C(=O)NCc1ccc(N)nc1)N(C)C [Example 344, (S)—N-[(S)-1-[(6-Amino-pyridin-3-ylmethyl)-carbamoyl]-2-(3,4-difluoro-phenyl)-ethyl]-2-dimethylamino-propionamide]
IC50: 21.3 nM

CCN(C)[C@@H](C)C(=O)N[C@@H](Cc1ccc(F)c(F)c1)C(=O)NCc1ccc(N)nc1 [Example 345, (S)—N-[(S)-1-[(6-Amino-pyridin-3-ylmethyl)-carbamoyl]-2-(3,4-difluoro-phenyl)-ethyl]-2-(ethyl-methyl-amino)-propionamide]
IC50: 7.7 nM

CCCN(C)[C@@H](C)C(=O)N[C@@H](Cc1ccc(F)c(F)c1)C(=O)NCc1ccc(N)nc1 [Example 346, (S)—N-[(S)-1-[(6-Amino-pyridin-3-ylmethyl)-carbamoyl]-2-(3,4-difluoro-phenyl)-ethyl]-2-(methyl-propyl-amino)-propionamide]
IC50: 21.3 nM

CCCCN(C)[C@@H](C)C(=O)N[C@@H](Cc1ccc(F)c(F)c1)C(=O)NCc1ccc(N)nc1 [Example 347, (S)—N-[(S)-1-[(6-Amino-pyridin-3-ylmethyl)-carbamoyl]-2-(3,4-difluoro-phenyl)-ethyl]-2-(butyl-methyl-amino)-propionamide]
IC50: 24.5 nM

CC(C)[C@@H](C(=O)N[C@@H](Cc1ccc(F)c(F)c1)C(=O)NCc1ccc(N)nc1)N(C)C(C)C [Example 348, (S)—N-[(S)-1-[(6-Amino-pyridin-3-ylmethyl)-carbamoyl]-2-(3,4-difluoro-phenyl)-ethyl]-2-(isopropyl-methyl-amino)-3-methyl-butyramide]
IC50: 11.1 nM

CCC(C)[C@@H](C(=O)N[C@@H](Cc1ccc(F)c(F)c1)C(=O)NCc1ccc(N)nc1)N(C)C(C)C (stereo partly drawn) [Example 349, (S)-2-(Isopropyl-methyl-amino)-3-methyl-pentanoic acid [(S)-1-[(6-amino-pyridin-3-ylmethyl)-carbamoyl]-2-(3,4-difluoro-phenyl)-ethyl]-amide]
IC50: 7.8 nM

CC(C)N(C(C)C)[C@@H](C)C(=O)N[C@@H](Cc1ccc(F)c(F)c1)C(=O)NCc1ccc(N)nc1 [Example 350, (S)—N-[(S)-1-[(6-Amino-pyridin-3-ylmethyl)-carbamoyl]-2-(3,4-difluoro-phenyl)-ethyl]-2-diisopropylamino-propionamide]
IC50: 28.5 nM

CN(C)[C@@H](Cc1ccccc1)C(=O)N[C@@H](Cc1ccc(F)c(F)c1)C(=O)NCc1ccc(N)nc1 [Example 351, (S)—N-[(S)-1-[(6-Amino-pyridin-3-ylmethyl)-carbamoyl]-2-(3,4-difluoro-phenyl)-ethyl]-2-dimethylamino-3-phenyl-propionamide]
IC50: 8.8 nM

CCN(C)[C@@H](Cc1ccccc1)C(=O)N[C@@H](Cc1ccc(F)c(F)c1)C(=O)NCc1ccc(N)nc1 [Example 352, (S)—N-[(S)-1-[(6-Amino-pyridin-3-ylmethyl)-carbamoyl]-2-(3,4-difluoro-phenyl)-ethyl]-2-(ethyl-methyl-amino)-3-phenyl-propionamide]
IC50: 13.7 nM

CCC(C)[C@@H](C(=O)N[C@@H](Cc1ccc(F)c(F)c1)C(=O)NCc1ccc(N)nc1)N(C)C(C)C (stereo partly drawn) [Example 353, (S)-2-(Isopropyl-methyl-amino)-3-methyl-pentanoic acid [(S)-1-[(6-amino-pyridin-3-ylmethyl)-carbamoyl]-2-(3,4-difluoro-phenyl)-ethyl]-amide]
IC50: 7.8 nM

CC(C(=O)N[C@@H](Cc1ccc(F)c(F)c1)C(=O)NCc1ccc(N)nc1)N1CCCCC1 (stereo partly drawn) [Example 354, N-[(S)-1-[(6-Amino-pyridin-3-ylmethyl)-carbamoyl]-2-(3,4-difluoro-phenyl)-ethyl]-2-piperidin-1-yl-propionamide]
IC50: 11.6 nM

C[C@H](C(=O)N[C@@H](Cc1ccc(F)c(F)c1)C(=O)NCc1ccc(N)nc1)N1CCCC1 [Example 356, (R)—N-[(S)-1-[(6-Amino-pyridin-3-ylmethyl)-carbamoyl]-2-(3,4-difluoro-phenyl)-ethyl]-2-pyrrolidin-1-yl-propionamide]
IC50: 3.8 nM

C[C@@H](C(=O)N[C@@H](Cc1ccc(F)c(F)c1)C(=O)NCc1ccc(N)nc1)N1CCCC1 [Example 357, (S)—N-[(S)-1-[(6-Amino-pyridin-3-ylmethyl)-carbamoyl]-2-(3,4-difluoro-phenyl)-ethyl]-2-pyrrolidin-1-yl-propionamide]
IC50: 3 nM

CCC(C)[C@H](C(=O)N[C@@H](Cc1ccc(F)c(F)c1)C(=O)NCc1ccc(N)nc1)N(C)C (stereo partly drawn) [Example 358, (R)-2-Dimethylamino-3-methyl-pentanoic acid [(S)-1-[(6-amino-pyridin-3-ylmethyl)-carbamoyl]-2-(3,4-difluoro-phenyl)-ethyl]-amide]
IC50: 10.4 nM

CC(C)[C@H](C(=O)N[C@@H](Cc1ccc(F)c(F)c1)C(=O)NCc1ccc(N)nc1)N(C)C [Example 359, (R)—N-[(S)-1-[(6-Amino-pyridin-3-ylmethyl)-carbamoyl]-2-(3,4-difluoro-phenyl)-ethyl]-2-dimethylamino-3-methyl-butyramide]
IC50: 5 nM

CC(C)N(C)[C@@H](CO)C(=O)N[C@@H](Cc1ccc(F)c(F)c1)C(=O)NCc1ccc(N)nc1 [Example 360, (S)—N-[(S)-1-[(6-Amino-pyridin-3-ylmethyl)-carbamoyl]-2-(3,4-difluoro-phenyl)-ethyl]-3-hydroxy-2-(isopropyl-methyl-amino)-propionamide]
IC50: 20.2 nM

CCN(C)[C@@H](CO)C(=O)N[C@@H](Cc1ccc(F)c(F)c1)C(=O)NCc1ccc(N)nc1 [Example 361, (S)—N-[(S)-1-[(6-Amino-pyridin-3-ylmethyl)-carbamoyl]-2-(3,4-difluoro-phenyl)-ethyl]-2-(ethyl-methyl-amino)-3-hydroxy-propionamide]
IC50: 55.6 nM

CCN(CC)[C@@H](CO)C(=O)N[C@@H](Cc1ccc(F)c(F)c1)C(=O)NCc1ccc(N)nc1 [Example 362, (S)—N-[(S)-1-[(6-Amino-pyridin-3-ylmethyl)-carbamoyl]-2-(3,4-difluoro-phenyl)-ethyl]-2-diethylamino-3-hydroxy-propionamide]
IC50: 25.9 nM

CCN(CC)[C@H](CO)C(=O)N[C@@H](Cc1ccc(F)c(F)c1)C(=O)NCc1ccc(N)nc1 [Example 363, (R)—N-[(S)-1-[(6-Amino-pyridin-3-ylmethyl)-carbamoyl]-2-(3,4-difluoro-phenyl)-ethyl]-2-diethylamino-3-hydroxy-propionamide]
IC50: 84.4 nM
